Measurements: PMC3953453 (Molecular pharmaceutics, 2012)
Read-outs that look alike come from different tables or passages of the source.

How the values were obtained:
[1] = system: perfused rat intestine (duodenum, upper jejunum, terminal ileum and colon); assay: four-site perfused rat intestinal model; format: in vivo; settings: for effect of co-perfusion on absorption and metabolism of wogonoside: 0.1 mM saccharolactone, 20 mM gluconolactone, or antibiotics (100 units penicillin and 0.1mg streptomycin/mL)
[2] = system: β-glucuronidase in intestinal perfusate; assay: biological stability in blank intestinal perfusate; settings: for effect on hydrolysis of wogonoside in blank intestinal perfusate: wogonoside 20 μM, 0.1 or 4.4 mM saccharolactone, 20 mM gluconolactone
[3] = cited from earlier work
[4] = system: β-glucuronidase in the rat intestine perfusates; assay: hydrolysis of wogonoside in blank rat intestinal perfusate; format: in vitro ADME; settings: for Vmax of wogonoside hydrolysis / Km: blank perfusate; for Km: read-out: Km of wogonoside hydrolysis
[5] = molecular target: T1, β-glucuronidase derived from intestinal S9 fraction (Rattus norvegicus, UniProt P06760); assay: hydrolysis of wogonoside by rat intestine S9 fractions; format: in vitro ADME; settings: for Km: read-out: Km of wogonoside hydrolysis
T1 sequence (P06760 23-648): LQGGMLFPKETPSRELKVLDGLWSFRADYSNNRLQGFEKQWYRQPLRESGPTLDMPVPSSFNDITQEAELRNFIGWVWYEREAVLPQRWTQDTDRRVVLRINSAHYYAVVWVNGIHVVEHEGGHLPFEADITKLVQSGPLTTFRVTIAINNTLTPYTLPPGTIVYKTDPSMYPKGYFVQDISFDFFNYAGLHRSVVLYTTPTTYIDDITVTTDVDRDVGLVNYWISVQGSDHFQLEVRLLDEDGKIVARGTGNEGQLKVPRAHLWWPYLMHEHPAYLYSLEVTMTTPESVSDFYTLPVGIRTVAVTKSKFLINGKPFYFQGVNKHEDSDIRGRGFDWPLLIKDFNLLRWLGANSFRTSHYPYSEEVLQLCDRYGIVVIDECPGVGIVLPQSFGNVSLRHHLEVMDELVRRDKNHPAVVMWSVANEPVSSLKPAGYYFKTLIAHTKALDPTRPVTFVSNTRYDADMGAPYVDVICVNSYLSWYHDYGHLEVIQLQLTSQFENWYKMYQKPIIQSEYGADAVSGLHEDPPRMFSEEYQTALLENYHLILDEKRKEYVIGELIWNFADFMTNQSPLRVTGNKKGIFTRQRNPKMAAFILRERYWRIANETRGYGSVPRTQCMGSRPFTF

[6] = system: β-glucuronidase of microbial enzymatic extract (rat feces); assay: hydrolysis of wogonoside by microbial enzymatic extract from rat feces; format: in vitro ADME
[7] = chemical stability of wogonoside; format: physicochemical
[8] = stability in diluted bile solution; format: in vitro ADME, rat; settings: 20 μM, 4-fold diluted bile solution, 37°C

Structure (SMILES): O=C1O[C@H](CO)[C@@H](O)[C@H](O)[C@H]1O [gluconolactone, reference compound]
- effect of co-perfusion on absorption and metabolism of wogonoside [1]: did not affect its absorption
- effect on hydrolysis of wogonoside in blank intestinal perfusate [2]: did not inhibit the hydrolysis of wogonoside

Structure (SMILES): Oc1ccc(/C=C/c2cc(O)cc(O)c2)cc1 [resveratrol]
- bioavailability [3]: < 5%

Structure (SMILES): O=C(O)[C@@H](O)[C@H]1OC(=O)[C@H](O)[C@H]1O [saccharolactone]
- effect of co-perfusion on absorption and metabolism of wogonoside [1]: affected both absorption and metabolism of wogonoside
- effect of co-perfusion on absorption and metabolism of wogonin ([1]; co-perfused with 0.1 mM saccharolactone): did not affect the absorption or metabolism of wogonin
- effect on hydrolysis of wogonoside in blank intestinal perfusate [2]: inhibit the hydrolysis of wogonoside in all perfusate

Structure (SMILES): COc1c(O[C@@H]2O[C@H](C(=O)O)[C@@H](O)[C@H](O)[C@H]2O)cc(O)c2c(=O)cc(-c3ccccc3)oc12 [wogonoside, wogonin-7-O-glucuronide]
- metabolite found in perfusate (interconversion) ([1]; 5 μM and 20 μM perfused): significant amounts of wogonin were recovered in the wogonoside perfusate
- intestinal absorption ([1]; 5 μM and 20 μM, four segments): slower in every intestine regions when compared to wogonin
- maximal hydrolysis rate ([4]; blank jejunal perfusate, pH 4.5, wogonoside 20μM): 1.559 ± 0.008 nmol/min/mg
- Vmax of wogonoside hydrolysis ([4]; Col 60-90min): 0.15 nmol/min/mg
- Vmax of wogonoside hydrolysis ([4]; Duo 60-90min): 0.15 nmol/min/mg
- Vmax of wogonoside hydrolysis ([4]; Ile 60-90min): 0.85 nmol/min/mg
- Vmax of wogonoside hydrolysis ([4]; Ile 120-150min): 0.30 nmol/min/mg
- Vmax of wogonoside hydrolysis ([4]; Jej 0-30min): 1.84 nmol/min/mg
- Vmax of wogonoside hydrolysis ([4]; Jej 30-60min): 0.93 nmol/min/mg
- Vmax of wogonoside hydrolysis ([4]; Jej 60-90min): 0.47 nmol/min/mg
- Vmax of wogonoside hydrolysis ([4]; Jej 90-120min): 0.37 nmol/min/mg
- Vmax of wogonoside hydrolysis ([4]; Jej 120-150min): 0.18 nmol/min/mg
- Km ([4]; Col 60-90min): 19.7 µM
- Km ([4]; Duo 60-90min): 19.9 µM
- Km ([4]; Ile 60-90min): 6.33 µM
- Km ([4]; Ile 120-150min): 6.96 µM
- Km ([4]; Jej 0-30min): 19.8 µM
- Km ([4]; Jej 30-60min): 15.8 µM
- Km ([4]; Jej 60-90min): 18.7 µM
- Km ([4]; Jej 90-120min): 17 µM
- Km ([4]; Jej 120-150min): 25.5 µM
- Vmax of wogonoside hydrolysis ([5]; Duo S9 fraction): 2.06 nmol/min/mg
- Vmax of wogonoside hydrolysis ([5]; Ile S9 fraction): 0.26 nmol/min/mg
- Vmax of wogonoside hydrolysis ([5]; Jeu S9 fraction): 1.68 nmol/min/mg
- maximal hydrolysis rate ([5]; jejunal S9 fraction, pH 4.5, wogonoside 20μM): 5.195 ± 0.103 nmol/min/mg
- optimal pH of glucuronidase activity ([5]; jejunal S9 fraction, wogonoside 20μM, 37°C, 30 min): 4.5
- Km ([5]; Duo S9 fraction): 30 µM
- Km ([5]; Ile S9 fraction): 25.7 µM
- Km ([5]; Jeu S9 fraction): 28.2 µM
- Vmax of wogonoside hydrolysis ([6]; Microflora enzymatic extract): 49.64 nmol/min/mg
- highest hydrolysis rate ([6]; fecal extract, pH 5.5, wogonoside 20μM): 249.211 ± 0.178 nmol/min/mg
- Km ([6]; read-out: Km of wogonoside hydrolysis, Microflora enzymatic extract): 7.7 µM
- chemical stability ([7]; pH 5.5, pH 6.5 and pH 7.4, 37°C): chemically stable
- recovery (chemical stability) ([7]; pH 5.5, pH 6.5 and pH 7.4, 8 h incubation at 37°C): 104%-106%
- stability in bile [8]: fairly stable
- stability in blank intestinal perfusate ([2]; blank perfusate of duodenum, jejunum, ileum, colon, 37°C, up to 8 h): unstable
- stability in blank intestinal perfusate after removal of bacteria ([2]; centrifugation (13,000 rpm, 30 min) and aseptic filtration, 20 μM): did not improve stability of wogonoside
